Results on four compounds are retold here after patent US4584382A, “Pyridyl acrylate compound” (priority 1984, dated 1986).

For one data set, the target named is T1, H1 histamine receptor (Cavia porcellus, UniProt P31389).
T1 construct: The longitudinal muscle was isolated from the intact ileum of guinea-pigs; from tissue; host or cells: guinea-pig (Hartley, male) ileum longitudinal muscle
The data set is described as follows: Antihistaminic activity: antagonism of histamine concentration-response curves in isolated guinea-pig ileum longitudinal muscle (Schild plot). The settings on record: negative log of the antagonist concentration shifting the histamine control curve 2X to the right; one hour incubation; read-out: pA2 (converted). It counts as cell-based. The protocol: The longitudinal muscle was isolated from the intact ileum of guinea-pigs (Hartley, male 250-400 g) and placed in an organ bath under 300 mg tension. After one hour of equilibration, cumulative concentration-response curves (Van Rossum, J. M., Arch. Int. Pharmacodyn. Ther. 143, 299-330, 1963) to histamine were obtained. Following washing, the tissues were incubated for one hour with the test compound and then a second histamine concentration-response curve was run. Shifts to the right of the agonist concentration-response curve produced by the antagonists were used to construct Schild plots (Arunlakshana, O. and Schild, H. O., Br. J. Pharmacol: 14, 48-58, 1959). Regression of Log (dr-1) on Log [B], where dr is an equiactive response in the presence and absence of antagonist and [B] is the molar concentration of antagonist, allowed an estimate of pA2, i.e. the negative log of the concentration of antagonist which shifts the control histamine concentration-response curve 2X to the right.

The conditions of data set [1]: antihistamines now in use; cited from earlier work.
For data set [2] the following is noted: clinical use; cited from earlier work.
The conditions of data set [3]: human, in vivo; cited from earlier work.
Data set [4] can be described thus: Pharmacokinetic studies comparing relative distribution in brain and plasma. It counts as in vivo. The settings on record: rodents.
Data set [5] relates to H1 histamine receptor sites. The data set is described as follows: Binding to H1 histamine receptor sites (statement). Set-up: species or system mammals including humans.
Data set [6] can be described thus: Sedative effects (statement). Particulars: in contrast to the antihistamines in present use. It counts as in vivo.
A short description of data set [7]: Anticholinergic activity / side effects (statement). Particulars: in contrast to the antihistamines in present use.

T1 sequence (P31389 whole entry): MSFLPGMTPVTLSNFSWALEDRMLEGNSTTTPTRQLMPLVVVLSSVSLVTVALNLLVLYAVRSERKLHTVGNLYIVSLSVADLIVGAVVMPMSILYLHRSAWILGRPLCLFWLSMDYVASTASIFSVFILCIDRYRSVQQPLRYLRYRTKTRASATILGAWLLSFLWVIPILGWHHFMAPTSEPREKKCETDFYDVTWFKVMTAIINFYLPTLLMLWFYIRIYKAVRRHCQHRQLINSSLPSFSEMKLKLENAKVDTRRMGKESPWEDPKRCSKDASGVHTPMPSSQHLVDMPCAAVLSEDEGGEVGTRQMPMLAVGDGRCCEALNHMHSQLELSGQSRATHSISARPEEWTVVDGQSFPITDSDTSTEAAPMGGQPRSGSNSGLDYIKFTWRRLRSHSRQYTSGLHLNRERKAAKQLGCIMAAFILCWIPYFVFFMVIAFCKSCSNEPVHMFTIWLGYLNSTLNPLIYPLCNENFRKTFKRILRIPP

On to `Cc1ccc(/C(=C\CN2CCCC2)c2ccccn2)cc1` [Triprolidine, (E)-1-(4-methylphenyl)-1-(2-pyridyl)-3-pyrrolidinoprop-1-ene], for which the Kb on H1 histamine receptor is 0.0794 nM. Moreover, in data set [1], the anticholinergic activity entry is listed as “varying degrees of anticholinergic activity”. The antihistamine potency result in data set [2] is “one of the most potent antihistamines available”. The sedation and drowsiness entry in data set [3] is “produces sedation and drowsiness in varying degrees in most patients”.

Consider `O=C(O)/C=C/c1cccc(/C(=C/CN2CCCC2)c2ccc(C(F)(F)F)cc2)n1` [Compound of Formula (I), (E)-3-{6-[3-Pyrrolidino-1(4-Trifluoromethylphenyl)prop-1E-enyl]-2-pyridyl}acrylic acid], for which, at H1 histamine receptor, the Kb is 0.0398 nM. The brain penetration entry in data set [4] is recorded as “does not readily penetrate the brains of rodents”. The “binding to H1 histamine receptor sites” value in data set [5] is “binds competitively to the H1 histamine receptor sites”. Also, the sedating effect result in data set [6] is on record as “essentially not sedating”. In data set [7], the anticholinergic side effects result is on record as “little or no anticholinergic side effects”.

In the case of `COc1ccc(CN(CCN(C)C)c2ccccn2)cc1` [pyrilamine], the anticholinergic activity entry in data set [1] is on record as “varying degrees of anticholinergic activity”.

With `CC(CN1c2ccccc2Sc2ccccc21)N(C)C` (centres unmarked) [promethazine], in data set [1], the anticholinergic activity entry is reported as “varying degrees of anticholinergic activity”.
